Assay results reported in the METLIN SMRT retention time set (Domingo-Almenara et al. 2019).

Assay: gradient 5% acetonitrile 3 min, to 50% in 2 min, to 85% in 15 min, held 3 min, 100 µL/min
Conditions: column: Zorbax Extend-C18 2.1 x 50 mm; eluents: water / acetonitrile, 0.1% formic acid
Outline: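 A Zorbax Extend-C18 column (2.1 × 50 mm, 1.8 μm) run at 100 μL/min with water and acetonitrile, both containing 0.1% formic acid, separated mixtures of ~100 pure standards. The HPLC was coupled to a quadrupole time-of-flight mass spectrometer operated in positive and negative ionization mode, with dead and dwell volumes of 40 μL and 900 μL. Each retention time was taken from a computationally picked adduct peak that was then manually inspected.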

Row | RP-LC retention time [s] | Compound
1 | 745 | CC(=O)Nc1ccc(SCC(=O)Nc2ccc(OC(F)(F)F)cc2)nn1
2 | 719 | COCCN1CC2(CCN(S(=O)(=O)c3ccccc3Cl)CC2)C1c1ccccc1 (stereo not given)
3 | 579 | O=C1NCC2(CCN(CCc3ccccc3)CC2)O1
4 | 780 | CCOC(=O)c1csc(NC(=O)c2ccccc2Br)n1
5 | 1120 | CCN(CC)S(=O)(=O)c1cccc(-c2nnc(-c3cccc(C)c3)o2)c1
6 | 1100 | COc1ccc(-c2nc(Cc3noc(-c4ccccc4)n3)c(C)o2)cc1
7 | 615 | CC(C)CNC(=O)N1CCCN(S(C)(=O)=O)CC1
8 | 921 | Cc1ccc(S(=O)(=O)NCCc2cn(CC(C)C)c3ncccc23)cc1
9 | 990 | O=C(CNS(=O)(=O)c1ccc(F)cc1)N1CCCC1c1nc(-c2ccc(Cl)cc2)no1 (stereo not given)
10 | 904 | COC(=O)c1ccc(CSc2nnc(NC(=O)c3nc4ccccc4s3)s2)o1
11 | 943 | CCOc1ccccc1-c1csc(NC(=O)Cc2csc(C)n2)n1
12 | 755 | Cc1cc(C)c(C)c(S(=O)(=O)N2CCN(c3nc4ccncc4n(C)c3=O)CC2)c1C
13 | 575 | CC(C)CCN1CCc2[nH]nc(C(=O)N(C)C)c2C1
14 | 815 | Cc1cc(C)c(S(=O)(=O)N2CCC3(CC2)NCCN=C3NCc2ccccc2C)cc1C
15 | 1010 | CCN1C=C(C(=O)OCc2ccccc2Cl)C(C)=NS1(=O)=O
16 | 951 | COc1cc(CC(=O)N2CCc3cc(-c4cc(C)no4)ccc32)cc(OC)c1
17 | 625 | Cc1ccc2c(c1)C1CC(C)(O2)N(c2cccc(C(=O)N3CCN(c4ccccn4)CC3)c2)C(=O)N1 (stereo not given)
18 | 689 | Cc1ccc2nc(C(=O)NCc3cccc(F)c3)cn2c1
19 | 1010 | Cc1cc(-c2nnc(-c3ccccc3)o2)c(C)n1CC(=O)Nc1ccc(F)c(F)c1
20 | 752 | CN(C)c1nccnc1OC1CCN(C(=O)c2ccccc2Br)C1 (stereo not given)
21 | 571 | COc1ccc2[nH]c(=O)c(CCC(=O)NCc3cccnc3)cc2c1
22 | 1020 | O=C1N(c2cccc(F)c2)c2ncccc2S(=O)(=O)N1Cc1ccccc1F

Row | RP-LC retention time [s] | Compound
23 | 933 | Cc1ccccc1-c1nnc(CSc2ccc(NC(=O)C3CC3)cc2)o1
24 | 1220 | Fc1cccc(-c2nc(-c3ccc(-n4cccn4)nc3)no2)c1
25 | 807 | CC(Cc1ccco1)NC(=O)C1CCN(S(=O)(=O)c2ccc3c(c2)sc(=O)n3C)CC1 (stereo not given)
26 | 886 | O=C(Nc1ccc(F)cc1F)N1CCC(CCNC(=O)C2(c3ccccc3)CC2)CC1
27 | 795 | O=C(N1CCC(Cc2ccc(COCc3ccncc3)cc2)CC1)C1(c2ccccc2)CC1
28 | 914 | Cn1nc(C(=O)Nc2ccccc2)c2c1CCN(C(=O)Nc1cccc(Br)c1)C2
29 | 1060 | CCCn1c(=O)sc2cc(S(=O)(=O)N3CCC(C(=O)Nc4cc(C)cc(C)c4)CC3)ccc21
30 | 770 | O=C(CCCn1nnc2ccccc2c1=O)Nc1ccccc1Cl
31 | 729 | Cc1ccccc1CNC1=NCCNC12CCN(S(=O)(=O)c1ccccc1C)CC2
32 | 713 | O=C(Nc1cc(-c2ccccn2)no1)c1ccoc1
33 | 772 | Cc1noc(CNC(=O)CN(C)c2nc3c(C)ccc(C)c3s2)n1
34 | 712 | Cc1nn(-c2ccc(C(=O)N3CCN(C(=O)c4ccco4)CC3)cc2)c2c1C(=O)CC(C)(C)C2
35 | 986 | O=C(Cn1cccc1-c1nnc(-c2ccccc2)o1)N1CCc2ccccc2C1
36 | 615 | O=C(C1CCN(c2nc3ccc(-c4cccnc4)nc3s2)CC1)N1CCCC1
37 | 605 | COc1ccc(C2(C(=O)N3C[C@@H](CO)[C@H](c4ccccn4)C3)CC2)cc1
38 | 798 | O=C1CN(c2ccccc2NC(=O)c2cc(-c3ccccc3)on2)CCN1
39 | 974 | COc1ccc(C2(C(=O)N3CC(c4noc(COc5ccc(F)cc5)n4)C3)CC2)cc1
40 | 755 | COc1cc2c(cc1CNC(=O)c1ccco1)OCCCO2
41 | 663 | O=C(Cc1cccs1)N1CCCC(c2nncn2-c2ccccc2)C1 (stereo not given)
42 | 576 | CN(C)CCNC(=O)Cn1c2ccccc2c2cnn(C)c(=O)c21
43 | 600 | COc1cccc(CN2CCc3nc(N4CCCC4)ncc3C2)c1
44 | 1230 | COc1ccc(-c2noc(-c3nc(-c4ccc(N(C)C)cc4)no3)n2)cc1OC

Row | RP-LC retention time [s] | Compound
45 | 776 | COCCN1CC2(CCN(S(=O)(=O)c3ccc(C(C)C)cc3)CC2)C1c1ccccc1 (stereo not given)
46 | 1020 | Cc1ccc2c(c1)N(S(C)(=O)=O)CCC(C(=O)Nc1ccccc1C(C)C)O2 (stereo not given)
47 | 902 | O=c1c2c(CO)c(-c3ccccc3)nn2ccn1Cc1ccccc1F
48 | 575 | CCN1CCN(c2ncc3c(n2)CCN(Cc2ccc(Cl)c(F)c2)C3)CC1
49 | 929 | Cc1nc(-c2csc(S(=O)(=O)N3CCCC(C(=O)Nc4ccccc4F)C3)c2)no1 (stereo not given)
50 | 876 | O=C(Cc1ccc(Br)cc1)NCC(=O)N1CCCc2ccccc21
51 | 764 | O=C(NCc1ccccc1)C1CC(=O)N(CCc2c[nH]c3ccc(F)cc23)C1 (stereo not given)
52 | 684 | O=C(C1CCN(c2cnc(N3CCOCC3)nc2)CC1)N1CCCCCC1
53 | 741 | CCCNC(=O)C1CCCN(c2nc3ncn(CC(=O)Nc4ccc(Cl)cc4)c(=O)c3s2)C1 (stereo not given)
54 | 825 | C=Cc1ccc(Cn2cc(S(=O)(=O)N3CCOCC3)ccc2=O)cc1
55 | 845 | O=C(c1nc(Nc2ccc(F)cc2)c2ccccc2n1)N1CCCCCC1
56 | 730 | Cc1c(C(=O)O)nnn1-c1ccc(C(F)(F)F)cc1
57 | 936 | CCC(c1cccs1)N1C(=O)[C@H]2CN(S(=O)(=O)c3cc(F)ccc3F)C[C@H]2C1=O (stereo not given in full)
58 | 827 | Cc1nn2c(CNS(=O)(=O)c3ccccc3C)c(-c3ccccc3)nc2s1
59 | 808 | CC1=C(c2ccccc2)S(=O)(=O)N=C1N1CCCN(C(=O)c2ccccc2C)CC1
60 | 656 | CCOC(=O)Cc1ccc(NC(=O)N2CCN(c3nc4ccccc4n3C)CC2)cc1
61 | 608 | CCOc1ccc(C2=NC3(CCN(C(C)C)CC3)NC(c3cccc(OC)c3O)C2)cc1 (stereo not given)
62 | 1060 | Cn1cccc1C(=O)C(=O)Nc1ccccc1C(F)(F)F
63 | 879 | CCc1noc(NC(C)=O)c1-c1ccc(C)c(S(=O)(=O)N2CCCCC2)c1
64 | 704 | CCn1cnc(S(=O)(=O)N2CCC(C(=O)Nc3cc(OC)cc(OC)c3)CC2)c1
65 | 598 | Cc1ccc2nc(C3CN(C(=O)c4c(-c5ccccc5Cl)noc4C)C3)[nH]c2c1
66 | 768 | Cc1nn(CC(=O)NC(C)(C)C)c(=O)c2c(C)n(-c3ccccc3)nc12

Row | RP-LC retention time [s] | Compound
67 | 806 | N#Cc1nc(-c2ccc(COc3ccc(Cl)cc3)o2)oc1N1CCC(C(N)=O)CC1
68 | 759 | O=C(NCc1ccc(F)cc1)C1CCCN(C(=O)C2Sc3ccccc3NC2=O)C1 (stereo not given)
69 | 1030 | CCOC(=O)N1CCN(c2ncc(S(=O)(=O)c3ccc(C(C)C)cc3)c(N)n2)CC1
70 | 733 | O=C(NCCS(=O)(=O)N1CCc2ccccc2C1)c1cc(=O)c2ccccc2o1
71 | 633 | CC1=C(C(=O)NC2CCN(Cc3ccccc3)CC2)C2(CCCCC2)OC1=O
72 | 624 | Nc1c2c(nc3c1CCC3)CCCC2
73 | 713 | CCCNc1cc(N2CCC(CCC(=O)NCc3ccc(F)c(Cl)c3)CC2)ncn1
74 | 876 | CCCn1cc(CCNC(=O)Nc2ccc(Cl)cc2F)c2cccnc21
75 | 640 | Cn1cc(-c2ccncc2)cc1C(=O)NCc1ccc(F)cc1
76 | 880 | CCOC(=O)c1cn(Cc2ccccc2F)c2nc(C)ccc2c1=O
77 | 609 | COc1ccc(OC)c(Nc2nc(NCCO)c3cnn(C)c3n2)c1
78 | 910 | CCc1cc(C2CCCN2C(=O)Nc2ccccc2Cl)on1 (stereo not given)
79 | 805 | CN(Cc1cccn1C)C(=O)NC(C)(C)C
80 | 898 | O=C(NCCc1c[nH]c2ccccc12)c1cn(-c2ccc(F)cc2)nn1
81 | 694 | CCCCN1C(=O)C(C)(C(=O)NC2CCN(Cc3ccccc3)CC2)Oc2cccnc21 (stereo not given)
82 | 717 | Cc1nc2c(ccc3nc(NC(=O)c4ccc(N5C(=O)CCC5=O)cc4)sc32)s1
83 | 584 | CCC(C)C1Nc2ccc(C(=O)NCCCN3CCOCC3)cc2NC1=O (stereo not given)
84 | 970 | Cc1ccc(-c2nnc(-c3nn(C)c4c3CN(S(=O)(=O)c3ccc(F)c(Cl)c3)CC4)o2)cc1
85 | 951 | CC(NC(=O)C1CCCN(c2nc3ccsc3c(=O)n2Cc2ccccc2)C1)c1ccc(F)cc1 (stereo not given)
86 | 1280 | O=C(COc1ccccc1Cl)Nc1ccc(-c2nc(-c3ccccc3)no2)cc1
87 | 619 | O=C(c1ccncc1)N1CCN(c2cc(-c3cccs3)[nH]n2)CC1
88 | 896 | COc1ccccc1-n1ccnc(NC(=O)Nc2ccc(F)cc2)c1=O

Row | Compound | RP-LC retention time [s]
89 | COc1ccc2c(c1)C1(CCN(C(=O)C(C)C)C1)C(=O)N2 (stereo not given) | 646
90 | COc1ccc(CNC(=O)N2CCC3(C2)C(=O)N(C)c2ccc(OC)cc23)cc1 (stereo not given) | 747
